These results are taken from patent US20150259295A1, “SUBSTITUTED PYRAZOLE COMPOUNDS AS LPAR ANTAGONISTS” (Hoffmann-La Roche Inc., priority 2012, published 2015).

Some results are limits rather than exact numbers.

In experiment [1] the target is human recombinant LPA1 Lysophospholipid receptor (Homo sapiens, UniProt Q92633). The experiment can be described thus: Calcium flux assay using FLIPR, LPA1R antagonist activity. Conditions: for IC50: ChemiScreen calcium-optimized stable cell line, FLIPR calcium flux, antagonist mode. It is filed as cell-based. The method, then: (§1) Calcium Flux Assay Using Fluorometric Imaging Plate Reader (FLIPR)
Cell Culture Conditions: The ChemiScreen Calcium-optimized stable cell line containing the human recombinant LPA1 Lysophospholipid receptor was purchased from Chemicon International, Inc./Millipore. The cells were cultured in DMEM-high glucose supplemented with 10% fetal bovine serum, 2 mM glutamine, 100 U/mL penicillin/100 μg/mL streptomycin, 1× non-essential amino acids, 10 mM HEPES and 0.25 mg/mL Geneticin. Cells were harvested with trypsin-EDTA and counted using ViaCount reagent. The cell suspension volume was adjusted to 2.0×10^5 cells/mL with complete growth media. Aliquots of 50 μL were dispensed into 384 well black/clear tissue culture treated plates (BD) and the microplates were placed in a 37° C. incubator overnight. The following day plates were used in the assay.
Dye Loading and Assay: Loading Buffer (FLIPR Calcium-4, Molecular Devices) was prepared by dissolving the contents of one bottle into 100 mL Hank's Balanced Salt Solution containing 20 mM HEPES and 2.5 mM probenecid. Plates were loaded onto Biotek plate washer and growth media was removed and replaced with 20 µL of Hank's Balanced Salt Solution containing 20 mM HEPES and 2.5 mM probenecid, followed by 25 μL of Loading Buffer. The plates were then incubated for 30 minutes at 37° C.
During the incubation, test compounds were prepared by adding 90 μL of HBSS/20 mM HEPES/0.1% BSA buffer to 2 μL of serially diluted compounds. To prepare serial dilutions, 10 mM stocks of compounds were prepared in 100% DMSO. The compound dilution plate was set up as follows: well #1 received 29 μL of stock compound and 31 μL DMSO; wells 2-10 received 40 μL of DMSO; mixed and transferred 20 μL of solution from well #1 into well #2; continued with 1:3 serial dilutions out 10 steps; transferred 2 μL of diluted compound into duplicate wells of 384 well “assay plate” and then added the 90 μL of buffer.
(§2) After incubation, both the cell and “assay” plates were brought to the FLIPR and 20 μL of the diluted compounds were transferred to the cell plates by the FLIPR. Compound addition was monitored by FLIPR to detect any agonist activity of the compounds. Plates were then incubated for 30 minutes at room temperature protected from light. After the incubation, plates were returned to the FLIPR and 20 μL of 4.5× concentrated agonist was added to the cell plates. During the assay, fluorescence readings were taken simultaneously from all 384 wells of the cell plate every 1.5 seconds. Five readings were taken to establish a stable baseline, then 20 μL of sample was rapidly (30 μL/sec) and simultaneously added to each well of the cell plate. The fluorescence was continuously monitored before, during and after sample addition for a total elapsed time of 100 seconds. Responses (increase in peak fluorescence) in each well following agonist addition was determined. The initial fluorescence reading from each well, prior to ligand stimulation, was used as zero baseline value for the data from that well. The responses were expressed as % inhibition of the buffer control.

The next experiment concerns the target T1, LPA3R (Homo sapiens, UniProt Q9UBY5).
T1 sequence (Q9UBY5 1-353): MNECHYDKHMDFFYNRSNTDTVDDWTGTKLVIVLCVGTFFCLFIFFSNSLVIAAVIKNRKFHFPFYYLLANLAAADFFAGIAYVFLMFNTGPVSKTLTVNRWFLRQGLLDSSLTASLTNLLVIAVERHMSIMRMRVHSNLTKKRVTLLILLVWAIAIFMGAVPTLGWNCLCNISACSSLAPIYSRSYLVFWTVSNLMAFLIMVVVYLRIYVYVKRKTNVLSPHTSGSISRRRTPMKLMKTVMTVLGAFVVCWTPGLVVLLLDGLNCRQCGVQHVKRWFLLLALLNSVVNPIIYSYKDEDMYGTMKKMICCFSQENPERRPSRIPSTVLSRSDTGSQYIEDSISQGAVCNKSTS
The experiment can be described thus: LPA3R antagonist activity (Table 1, calcium flux FLIPR). The format is cell-based. The method, then:
as §1, §2
Background: Calcium flux is commonly read through the fluorescence of an indicator in the cells.

Chain of human recombinant LPA1 Lysophospholipid receptor (Q92633 whole entry): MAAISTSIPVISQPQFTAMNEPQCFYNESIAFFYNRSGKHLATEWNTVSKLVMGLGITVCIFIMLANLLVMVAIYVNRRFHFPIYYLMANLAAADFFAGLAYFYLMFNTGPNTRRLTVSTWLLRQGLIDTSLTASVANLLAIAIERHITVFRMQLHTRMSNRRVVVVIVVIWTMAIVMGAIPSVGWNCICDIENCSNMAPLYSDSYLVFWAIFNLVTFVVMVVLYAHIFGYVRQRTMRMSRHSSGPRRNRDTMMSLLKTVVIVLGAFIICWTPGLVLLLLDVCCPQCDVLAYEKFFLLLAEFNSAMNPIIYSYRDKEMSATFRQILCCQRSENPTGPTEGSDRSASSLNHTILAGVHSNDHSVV

The IC50 is the concentration that gives 50% inhibition. For `C[C@@H](OC(=O)Nc1c(-c2ccc(-c3ccc(C4(C(=O)O)CC4)cc3)cc2)cnn1C)c1cccc(C(F)(F)F)c1` [Example 17, (R)-1-{4′-[1-Methyl-5-((1-(3-(trifluoromethyl)phenyl)ethoxy)carbonylamino)-1H-pyrazol-4-yl]-biphenyl-4-yl}-cyclopropanecarboxylic acid], the IC50 in experiment [1] was found to be 0.042 µM; on LPA3R it was 0.478 µM.
For `C[C@@H](OC(=O)Nc1c(-c2ccc(-c3ccc(CC(=O)O)cc3)cc2)cnn1C)c1ccccc1` [Example 2, {4′-[1-Methyl-5-((R)-1-phenyl-ethoxycarbonylamino)-1H-pyrazol-4-yl]-biphenyl-4-yl}-acetic acid], in that order: 0.035 µM and greater than 30 µM.
For `C[C@@H](OC(=O)Nc1c(-c2ccc(-c3ccccc3)cc2)cnn1C)c1ccccc1` [Example 7, (4-Biphenyl-4-yl-2-methyl-2H-pyrazol-3-yl)-carbamic acid (R)-1-phenyl-ethyl ester], in that order: greater than 30 µM and greater than 30 µM.
`C[C@@H](OC(=O)Nc1c(-c2ccc(-c3ccc(C4(C(=O)O)CC4)cc3)cc2)cnn1C)c1ccccc1` [Example 5, 1-{4′-[1-Methyl-5-((R)-1-phenyl-ethoxycarbonylamino)-1H-pyrazol-4-yl]-biphenyl-4-yl}-cyclopropanecarboxylic acid]: the IC50 in experiment [1] turned out to be 0.02 µM; at LPA3R, 8.35 µM.
For `CC(C)[C@@H](C)OC(=O)Nc1c(-c2ccc(-c3ccc(C4(C(=O)O)CC4)cc3)cc2)cnn1C` [Example 15, (R)-1-{4′-[5-(1,2-Dimethyl-propoxycarbonylamino)-1-methyl-1H-pyrazol-4-yl]-biphenyl-4-yl}-cyclopropanecarboxylic acid], the IC50 in experiment [1] is 0.107 µM; at LPA3R, greater than 30 µM.
As to `CC(OC(=O)Nc1c(-c2ccccc2)cnn1C)c1ccccc1Cl` (stereo not drawn) [Example 3, (2-Methyl-4-phenyl-2H-pyrazol-3-yl)-carbamic acid 1-(2-chloro-phenyl)-ethyl ester], the IC50 in experiment [1] came to 3.59 µM.
Consider `Cn1ncc(-c2ccc(-c3ccc(C4(C(=O)O)CC4)cc3)cc2)c1NC(=O)OC1COC1` [Example 20, 1-{4′-[1-Methyl-5-((oxetan-3-yloxy)carbonylamino)-1H-pyrazol-4-yl]-biphenyl-4-yl}-cyclopropanecarboxylic acid], for which the IC50 (in experiment [1]; on LPA3R) was greater than 30 µM throughout.
The inhibition is the percentage by which the read-out fell short of the control. Turning to `CCOC(=O)C1(c2ccc(-c3ccc(-c4cnn(C)c4NC(=O)O[C@H](C)c4ccccc4)cc3)cc2)CC1` [Example 4, 1-{4′-[1-Methyl-5-((R)-1-phenyl-ethoxycarbonylamino)-1H-pyrazol-4-yl]-biphenyl-4-yl}-cyclopropanecarboxylic acid ethyl ester], the inhibition at 30 µM in experiment [1] was 65.9%. Also, the IC50 in experiment [1] was 1.59 µM; at LPA3R, greater than 30 µM.
Take `C[C@@H](OC(=O)Nc1c(-c2ccc(-c3ccc(C4(C(=O)O)CC4)cc3)cc2)cnn1C)c1ccccc1F` [Example 16, (R)-1-{4′-[5-((1-(2-Fluorophenyl)ethoxy)carbonylamino)-1-methyl-1H-pyrazol-4-yl]-biphenyl-4-yl}-cyclopropanecarboxylic acid]: the values for the IC50 (in experiment [1]; at LPA3R) were 0.024 µM and 5.8 µM, respectively.
As to `C[C@@H](CC(=O)Nc1c(-c2ccc(-c3ccc(C4(C(=O)O)CC4)cc3)cc2)cnn1C)c1ccccc1` [Example 25, 1-{4′-[1-Methyl-5-((S)-3-phenyl-butyrylamino)-1H-pyrazol-4-yl]-biphenyl-4-yl}-cyclopropanecarboxylic acid], in experiment [1], the inhibition at 30 µM turned out to be 85.5% and the IC50 turned out to be 0.88 µM. Moreover, on LPA3R, the concentration for half-maximal inhibition (IC50) is greater than 30 µM.
Consider `C[C@@H](OC(=O)Nc1c(-c2ccccc2F)cnn1C)c1cccc(C(F)(F)F)c1` [Example 23, [4-(2-Fluoro-phenyl)-2-methyl-2H-pyrazol-3-yl]-carbamic acid (R)-1-(3-trifluoromethyl-phenyl)-ethyl ester], for which the IC50 (in experiment [1]; at LPA3R) was greater than 30 µM in each case.
Take `Cn1ncc(-c2ccc(-c3ccc(C4(C(=O)O)CC4)cc3)cc2)c1NC(=O)NCc1ccccc1` [Example 24, 1-{4′-[5-(3-Benzyl-ureido)-1-methyl-1H-pyrazol-4-yl]-biphenyl-4-yl}-cyclopropanecarboxylic acid]: in experiment [1] (@ 10 μM), the inhibition at 10 µM amounted to 82.8%. Also, the results for the IC50 (in experiment [1]; at LPA3R) were 0.58 µM and greater than 30 µM, respectively.
As to `COc1ccc(-c2cnn(C)c2NC(=O)O[C@H](C)c2ccccc2)cc1` [Example 8, [4-(4-Methoxy-phenyl)-2-methyl-2H-pyrazol-3-yl]-carbamic acid (R)-1-phenyl-ethyl ester], the half-maximal inhibitory concentration (IC50) (in experiment [1]; at LPA3R) was greater than 30 µM throughout.
Take `C[C@H](OC(=O)Nc1c(-c2ccccc2F)cnn1C)c1ccccc1Cl` [Example 22, [4-(2-Fluoro-phenyl)-2-methyl-2H-pyrazol-3-yl]-carbamic acid (S)-1-(2-chloro-phenyl)-ethyl ester]: the IC50 (in experiment [1]; on LPA3R) was greater than 30 µM throughout.
Take `CC(OC(=O)Nc1c(-c2ccc(-c3ccc(C4(C(=O)O)CC4)cc3)cc2)cnn1C)c1ccccc1Cl` (stereo not drawn) [Example 6, 1-(4′-{5-[1-(2-Chloro-phenyl)-ethoxycarbonylamino]-1-methyl-1H-pyrazol-4-yl}-biphenyl-4-yl)-cyclopropanecarboxylic acid]: the IC50 was found to be 0.112 µM in experiment [1] and 2.47 µM at LPA3R.
Take `C[C@@H](OC(=O)Nc1c(-c2ccccc2)cnn1C)c1ccccc1` [Example 1, 2-Methyl-4-phenyl-2H-pyrazol-3-yl-carbamic acid (R)-1-phenyl-ethyl ester]: in experiment [1], the inhibition at 30 µM stood at 64.8% and the IC50 worked out at 17.5 µM. For the same molecule, the IC50 at LPA3R is greater than 30 µM.
On to `Cn1ncc(-c2ccc(-c3ccc(C4(C(=O)O)CC4)cc3)cc2)c1NC(=O)OC1CCC1` [Example 19, 1-{4′-[5-(cyclobutoxycarbonylamino)-1-methyl-1H-pyrazol-4-yl]-biphenyl-4-yl}-cyclopropanecarboxylic acid], for which the IC50 is 0.176 µM in experiment [1] and greater than 30 µM on LPA3R.
Turning to `CC[C@@H](C)OC(=O)Nc1c(-c2ccc(-c3ccc(C4(C(=O)O)CC4)cc3)cc2)cnn1C` [Example 14, (R)-1-{4′-[5-(sec-Butoxycarbonylamino)-1-methyl-1H-pyrazol-4-yl]-biphenyl-4-yl}-cyclopropanecarboxylic acid], the IC50 in experiment [1] was 0.038 µM; on LPA3R, greater than 30 µM.
Regarding `C[C@@H](OC(=O)Nc1c(-c2ccc(CC(=O)O)cc2)cnn1C)c1ccccc1` [Example 10, {4-[1-Methyl-5-((R)-1-phenyl-ethoxycarbonylamino)-1H-pyrazol-4-yl]-phenyl}-acetic acid], the IC50 (in experiment [1]; on LPA3R) was greater than 30 µM in each case.
As for `C[C@@H](OC(=O)Nc1c(-c2ccccc2F)cnn1C)c1ccccc1Cl` [Example 21, [4-(2-Fluoro-phenyl)-2-methyl-2H-pyrazol-3-yl]-carbamic acid (R)-1-(2-chloro-phenyl)-ethyl ester], in experiment [1], the inhibition at 30 µM turned out to be 97.2% and the IC50 was 0.644 µM. Also, the IC50 on LPA3R was greater than 30 µM.
In the case of `CC(OC(=O)Nc1c(-c2ccc(F)cc2)cnn1C)c1ccccc1Cl` (stereo not drawn) [Example 11, [4-(4-Fluoro-phenyl)-2-methyl-2H-pyrazol-3-yl]-carbamic acid 1-(2-chloro-phenyl)-ethyl ester], in experiment [1], the IC50 was determined as 3.93 µM.
